Values quoted from earlier work in patent US6544961B1, “Combinations comprising VX478, zidovudine, FTC and/or 3TC for use in the treatments of HIV” (SmithKline Beecham Corporation, priority 1996, dated 2003).

System: HIV
Conditions: European Patent Specification No. 384536

For `Nc1ccn(C2CSC(CO)O2)c(=O)n1` (racemic) [BCH-189, 4-amino-1-(2-hydroxymethyl-1,3-oxathiolan-5-yl)-(1H)-pyrimidin-2-one], the anti-HIV activity is given as “have been found to have anti-HIV activity”.
